Data on nine compounds can be found in publication PMC6470784, “Effect of Stereochemical Configuration on the Transport and Metabolism of Catechins from Green Tea across Caco-2 Monolayers” (Molecules, 2019).

Data set [1] has as its system MRP2. Kind of data set: MRP2 mRNA level in Caco-2 cells (qRT-PCR). As to conditions: 300 μmol/L, 2 h. The format is cell-based, human. As for the experimental part: The Caco-2 cells were seeded in six-well plates (Corning Costar Co., NY, USA) at a density of 4 × 10^4 cells/cm^2, and were cultured for 21 days. After incubation with each tea catechins (300 μmol/L in full culture medium) for 2 h or 24 h, the total RNA from the Caco-2 cells were isolated with a Total RNA Kit (Aidlab, Beijing, China). First-strand cDNA was synthesized using a cDNA synthesis Kit (Aidlab, Beijing, China). The gene expression of MRP2 was examined by quantitative real-time PCR with the SYBR Green qPCR Mix (Aidlab, Beijing, China) in an ABI7500 Real-Time System (Applied Biosystems, USA). The reaction was carried out in a 10 μL RT-reaction mixture containing 5 μL 2 × SYBR Green qPCR Mix, 0.2 μL forward and reverse primers (10 μmol/μL), and water to a final volume of 10 μL, and was performed under the following cycling conditions: an initial denaturing step of 10 min at 95 °C, followed by 40 cycles consisting of 5 s at 95 °C and 34 s at 60 °C.
All of the qPCR experiments were repeated in three biologicals. The data were analyzed using the 2-ΔΔCT method. All of the primers were synthesized by Sangon Biotech (Shanghai, China), as previously described, and their sequences are depicted in Table 3.
Background: Quantitative PCR measures a nucleic acid by following its amplification.

The subject of data set [2] is MRP2. Description: MRP2 protein level in Caco-2 cells (Western blot). As to conditions: 300 μmol/L, 2 h. Format: cell-based, human. As for the experimental part: After being washed by precooled PBS buffer three times, the total lysate was prepared on ice from 5 to 8 × 10^6 cells by lysis in a 150 μL Radio Immunoprecipitation Assay (RIPA) Lysis buffer containing 1% (v/v) Phenylmethanesulfonyl fluoride (PMSF) (Beyotime, Shanghai, China). The lysates were centrifuged at 13,000 rpm for 20 min at 4 °C, after mixing uniformity. The protein-containing supernatant was collected and the protein content was determined using the Bio-Rad protein assay. Western blotting was performed according to standard techniques, as previously described. In each lane of a Bio-Rad minigel system, 10 μg of protein was loaded. For the detection of BCRP, P-glycoprotein (MDR1), and MRP2, the following polyclonal antibodies were used: rabbit anti-BCRP (1:1000), rabbit anti-P-glycoprotein (1:1000), and rabbit anti-MRP2 (1:600). Horseradish peroxidase (HRP)-conjugated goat anti-rabbit (1:3000) were used as the secondary antibodies. As a loading control, the expression of β-actin was determined using an antibody against β-actin (1:40,000). Enhanced chemiluminescence (ECL) solutions were used for chemiluminescence.
For orientation: A western blot detects proteins with antibodies after separation by electrophoresis.

Data set [3] in a line: Bidirectional transepithelial transport across Caco-2 monolayers (Papp, efflux ratio), with and without MK571. As to conditions: human; for Papp A→B at 300 μmol/L / Papp at 300 μmol/L / Papp B→A at 300 μmol/L: Caco-2, pH 6. A general note: Caco-2 cells form a polarised layer with tight junctions and transporters.
Protocol: (§1) For the transport experiments, the cells were seeded in 24-mm i.d Transwell® inserts (polycarbonate membrane, 0.4 μM pore size, Corning Costar Co., (Corning, NY, USA) in six-well plates at a density of 4 × 10^5 cells/well, and were cultured for 21 days prior to the transport experiments. To monitor the integrity of the cell layers, transepithelial electrical resistance (TEER) values were measured using a Millicell-ERS Voltohmmeter (Millipore Corp, Bedford, MA, USA). TEER values above 513.7 Ω·cm^2 in the culture medium were selected for the transport experiment.
(§2) For the transport of GTCs across the Caco-2 monolayers, the inserts were gently washed twice and were equilibrated at 37 °C for 30 min with 0.01 M modified phosphate buffer saline (PBS+), which was supplemented with 0.45 M calcium chloride and 0.4 M potassium chloride, and adjusted to pH 6.0 [7]. In the transepithelial transport, GTCs at different concentrations in PBS+ (DMSO less than 0.5%) were loaded into the apical (AP) or basolateral (BL) side, the so-called donor side. The plate was then incubated at 37 °C. At designated time intervals, aliquots of 0.5 mL of sample were taken from the other side, the so-called receiver side, and then replaced with an equal volume of PBS+. After that, the samples were dried with a CoolSafe freeze dryer (LaboGene ApS, Bjarkesvej, Denmark) at −110 °C, and stored at −20 °C until analysis.
(§3) For the inhibition of transport, MK571 was used at a concentration of 93.11 μmol/L (50 μg/mL with a DMSO less than 0.3%). The cells were preincubated with the inhibitor for 30 min. Then, the bi-directional transport studies of the GTCs in the presence of MK-571 at both the donor and receiver side were performed as for the transport method described above.
(§4) The transport samples were analyzed by an Agilent LC 1260 system (Agilent Technologies, CA, USA) after redissolving with 50 μL methyl into vial inserts (100 uL; Agilent Technologies, CA, USA). The separation was performed on an Octadecylsilyl (ODS) reversed-phase column (4.6 mm i.d. × 250 mm, 4.5 μm; TC-C18, Agilent Technologies) using a diode array detector (DAD) at 278 nm. The mobile phase consisted of 15% methanol and 0.1% formic acid at a flow-rate of 0.8 mL/min.
(§5) The values were expressed as the mean ± standard deviation (SD) of three replications. The statistical significances of the difference between the various groups were analyzed using the Fisher’s least significant difference (LSD) procedure. For comparison between the two groups, the Student’s t-test was used. The differences were considered to be significant when p < 0.05.
Data set [4] has as its system BCRP. Kind of data set: BCRP mRNA level in Caco-2 cells (qRT-PCR). The format is cell-based, human. As to conditions: 2 h.
Protocol: All of the qPCR experiments were repeated in three biologicals. The data were analyzed using the 2-ΔΔCT method [39]. All of the primers were synthesized by Sangon Biotech (Shanghai, China), as previously described [40], and their sequences are depicted in Table 3.
The nature of another data set: in vitro. As to conditions: human; for Papp A→B at 300 μmol/L / Papp B→A at 300 μmol/L / Papp at 300 μmol/L: Caco-2, pH 6; for efflux ratio: Caco-2, pH 6, Efflux ratio in the absence of MK571.
Details of data set [5]: method as in PMID 10909265. As to conditions: rats, cited from earlier work.
The conditions of data set [6]: cited from earlier work.
Another data set relates to P-glycoprotein. Also noted: method as in PMID 15285844. As to conditions: KB-C2 cells; cited from earlier work.
Data set [7] relates to MRP2. Also noted: method as in PMID 23146761. As to conditions: rats, 24 h; cited from earlier work.
Data set [8] concerns BCRP. Also noted: method as in PMID 20149610. As to conditions: MCF-7 cell line, 100 μg/mL; cited from earlier work.
A further data set concerns Caco-2 cell monolayers. Description: Bidirectional transepithelial transport across Caco-2 monolayers (Papp, efflux ratio), with and without MK571. As to conditions: Caco-2 monolayers, MK571 93.11 μmol/L.
Setting [9] is: Caco-2, pH 6, Efflux ratio in the absence of MK571, Caco-2 monolayers, no MK571.
Where [10] appears, read: Caco-2, pH 6, with MK571 93.11 μmol/L (50 μg/mL), Efflux ratio in the presence of MK571, Caco-2 monolayers, MK571 93.11 μmol/L.
The mark [11] stands for this setting: rats, intragastric administration.

Structures can show the parent of a compound that is named as a salt. Where two headings read alike, the source gives them in different places.

Protocol for Caco-2 cell monolayers: as §1, §2, §3, §4, §5
Protocol for in vitro: as §1, §2, §3, §4, §5

One may read the Papp A→B as the apparent permeability from the apical to the basolateral side of a cell layer. What is called Papp is a coefficient for how fast a substance crosses the barrier. Broadly, the efflux ratio is a quotient of directional permeabilities that is used to spot active efflux. Turning to `Oc1cc(O)c2c(c1)O[C@H](c1ccc(O)c(O)c1)[C@@H](O)C2` [C, (+)-catechin], the “Increase of mRNA levels of MRP2” value with MRP2 [1] came to 14.05%. Also, the “Increase of protein level of MRP2” value in the data set with MRP2 [2] amounted to 58.33%. The Papp A→B at 300 μmol/L in data set [3] came to 1.56 ± 0.11 nm/s. The Papp at 300 μmol/L in [3] was less than 10 nm/s. For the same compound, the efflux ratio in [3] (setting [9]) was determined as 16.7; in [3] (setting [10]) it was 1.34.
The term Papp B→A denotes the apparent permeability from the basolateral to the apical side of a cell layer. Consider `O=C(O[C@@H]1Cc2c(O)cc(O)cc2O[C@H]1c1ccc(O)c(O)c1)c1cc(O)c(O)c(O)c1` [CG, (−)-catechin gallate], for which, in the data set with MRP2 [1], the “Increase of mRNA levels of MRP2” value is recorded as 123.09%. Besides, in the data set with MRP2 [2], the “Increase of protein level of MRP2” value was determined as 132.00%. The BCRP gene expression result in the data set with BCRP [4] is on record as “upregulation”. Moreover, in “in vitro”, the Papp A→B at 300 μmol/L stood at 1.39 ± 0.12 nm/s, the Papp B→A at 300 μmol/L turned out to be 6.51 ± 0.42 nm/s, the Papp at 300 μmol/L is less than 10 nm/s and the efflux ratio turned out to be 4.68.
On to `Oc1cc(O)c2c(c1)O[C@H](c1ccc(O)c(O)c1)[C@H](O)C2` [EC, (−)-epicatechin], for which, in the data set on MRP2 [1], the “Increase of mRNA levels of MRP2” value amounted to 41.67%. The “Increase of protein level of MRP2” value in the data set on MRP2 [2] stood at 60.00%. Also, in the data set with BCRP [4], the BCRP gene expression result was “upregulation”. Further, in data set [5] (250 mg/kg), the “Plasma concentration following oral administration” value was 53 µM. In addition, the Bioavailability in data set [6] (setting [11]) is given as 31%. Also, in [3], the Papp A→B at 300 μmol/L turned out to be 1.52 ± 0.17 nm/s and the Papp B→A at 300 μmol/L worked out at 16.9 ± 1.63 nm/s. The efflux ratio in data set [3] (setting [9]) was 11.2. In [3] (setting [10]), the efflux ratio was found to be 1.06.
As for `O=C(O[C@@H]1Cc2c(O)cc(O)cc2O[C@@H]1c1ccc(O)c(O)c1)c1cc(O)c(O)c(O)c1` [ECG, (−)-epicatechin gallate], in the data set on MRP2 [1], the “Increase of mRNA levels of MRP2” value was determined as 85.18%. Also, the “Increase of protein level of MRP2” value with MRP2 [2] came to 24.67%. The BCRP gene expression result in the data set on BCRP [4] is recorded as “upregulation”. The “Plasma concentration following oral administration” value in data set [5] (650 mg/kg) was 33.5 µM. For the same compound, the “Cellular accumulation of rhodamine-123 and daunorubicin” value (“Cellular accumulation” for short) in the data set on P-glycoprotein is given as “increase the cellular accumulation”. Besides, in “in vitro”, the Papp A→B at 300 μmol/L turned out to be 1.38 ± 0.09 nm/s, the Papp B→A at 300 μmol/L was determined as 3.87 ± 0.31 nm/s and the efflux ratio stood at 2.82.
For `Oc1cc(O)c2c(c1)O[C@H](c1cc(O)c(O)c(O)c1)[C@H](O)C2` [EGC, (−)-epigallocatechin], in the data set on MRP2 [1], the “Increase of mRNA levels of MRP2” value is listed as 103.58%. Moreover, the “Increase of protein level of MRP2” value in the data set with MRP2 [2] came to 35.67%. Also, in the data set with P-glycoprotein, the “Cellular accumulation” value is reported as “increase the cellular accumulation”. Moreover, in “in vitro”, the Papp A→B at 300 μmol/L amounted to 2.46 ± 0.1 nm/s, the Papp B→A at 300 μmol/L came out at 6.74 ± 0.62 nm/s and the efflux ratio is 2.74. In addition, the Bioavailability in data set [6] (rat, in vivo, po) is 13.7%.
Turning to `O=C(O[C@@H]1Cc2c(O)cc(O)cc2O[C@@H]1c1cc(O)c(O)c(O)c1)c1cc(O)c(O)c(O)c1` [EGCG, (−)-epigallocatechin gallate], the “Increase of mRNA levels of MRP2” value in the data set on MRP2 [1] was 89.57%. Besides, the “Increase of protein level of MRP2” value in the data set with MRP2 [2] was determined as 42.67%. Further, the BCRP gene expression result in the data set on BCRP [4] is “upregulation”. Besides, in [5] (2500 mg/kg), the “Plasma concentration following oral administration” value is 244.3 µM. In the data set with MRP2 [7], the “Protein level of MRP2 on the hepatocyte canalicular membrane” value is given as “significantly decreased”. The “mRNA transcription and protein level of BCRP” value in the data set on BCRP [8] is “not changed”. Further, the “Cellular accumulation” value with P-glycoprotein is listed as “increase the cellular accumulation”. Also, in data set [6] (setting [11]), the Bioavailability is given as 0.1%. Further, the Papp A→B at 300 μmol/L in data set [3] worked out at 0.93 ± 0.08 nm/s. In data set [3], the Papp B→A at 300 μmol/L stood at 2.57 ± 0.1 nm/s. For the same compound, the efflux ratio in data set [3] (setting [9]) stood at 2.75; in data set [3] (setting [10]), 1.05.
With `Oc1cc(O)c2c(c1)O[C@@H](c1cc(O)c(O)c(O)c1)[C@H](O)C2` [GC, (+)-gallocatechin], the “Increase of mRNA levels of MRP2” value in the data set with MRP2 [1] was determined as 119.33%. For the same compound, in the data set with MRP2 [2], the “Increase of protein level of MRP2” value is 37.67%. Also, in “in vitro”, the apparent permeability from apical to basolateral (Papp A→B) at 300 μmol/L is 2.64 ± 0.21 nm/s, the basolateral-to-apical permeability (Papp B→A) at 300 μmol/L is 8.75 ± 0.28 nm/s, the Papp at 300 μmol/L was less than 10 nm/s and the efflux ratio amounted to 3.32.
Turning to `O=C(O[C@@H]1Cc2c(O)cc(O)cc2O[C@H]1c1cc(O)c(O)c(O)c1)c1cc(O)c(O)c(O)c1` [GCG, (−)-gallocatechin gallate], in the data set with MRP2 [1], the “Increase of mRNA levels of MRP2” value turned out to be 133.15%. In addition, the “Increase of protein level of MRP2” value with MRP2 [2] is given as 20.67%. Besides, the BCRP gene expression entry in the data set with BCRP [4] is “upregulation”. In addition, in [3], the Papp A→B at 300 μmol/L stood at 1.03 ± 0.21 nm/s, the Papp B→A at 300 μmol/L stood at 2.93 ± 0.13 nm/s and the apparent permeability coefficient (Papp) at 300 μmol/L was less than 10 nm/s. Further, the efflux ratio in data set [3] (setting [9]) was 2.84. Moreover, the efflux ratio in [3] (setting [10]) was determined as 1.24.
As to `CN(C)C(=O)CCSC(SCCC(=O)O)c1cccc(/C=C/c2ccc3ccc(Cl)cc3n2)c1` (stereo not shown) [MK-571, MK-571 sodium salt hydrate, reference compound], in the data set on Caco-2 cell monolayers, the “Effect of MK-571 on the efflux of eight catechins” value is reported as “significantly inhibit”.
